Measurements from patent publication US12685312B2, “Sulfonamide apyrase inhibitors” (Texas Crop Science, Inc., priority 2022, dated 2026).

test system: apyrase; experiment: Screen for apyrase inhibitors (Method 1, in vitro phosphate-release absorbance assay); assay type: biochemical; details: inhibitor conc at 1 mM stock, 1 hr room temperature, absorbance 630 nm; rounded average of two assay results
Procedure, shortened: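 Phosphate-release colorimetric assay (Windsor method) in 60 mM Hepes, 3 mM MgCl2, 3 mM CaCl2, 3 mM ATP, pH 6.5, with compound or DMSO control added. Released phosphate developed with ammonium molybdate and ascorbic acid/TCA, then stopped with citrate/acetic acid.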

Row | % Inhibition of Apyrase | SMILES
1 | 52% | CN(c1ccccc1)S(=O)(=O)c1cccc(NC(=O)c2cc(Cl)nc3ccccc23)c1 [I-739, 2-chloro-N-(3-(N-methyl-N-phenylsulfamoyl)phenyl)quinoline-4-carboxamide]
2 | 57% | COc1ccc(S(=O)(=O)N2CCc3ccccc32)cc1C(=O)Nc1cccc(C)c1 [I-499, 5-(indolin-1-ylsulfonyl)-2-methoxy-N-(m-tolyl)benzamide]
3 | 56% | O=C(Nc1nccs1)c1cccc(NS(=O)(=O)c2cc(Cl)ccc2Cl)c1 [I-639, 3-((2,5-dichlorophenyl)sulfonamido)-N-(thiazol-2-yl)benzamide]
4 | 54% | O=C1Cc2cccc(NS(=O)(=O)c3ccc(Br)cc3)c2N1 [I-812, 4-bromo-N-(2-oxoindolin-7-yl)benzenesulfonamide]
5 | 58% | CN(c1ccccc1)S(=O)(=O)c1cc(C(=O)N2CCc3cc([N+](=O)[O-])ccc32)ccc1Cl [I-477, 2-chloro-N-methyl-5-(5-nitroindoline-1-carbonyl)-N-phenylbenzenesulfonamide]
6 | 61% | Cc1cccc(NC(=O)c2ccc(NS(=O)(=O)c3ccc(F)c(Cl)c3)cc2)c1 [I-905, 4-((3-chloro-4-fluorophenyl)sulfonamido)-N-(m-tolyl)benzamide]
7 | 13% | O=C(NCCC1CCCO1)c1cccc(S(=O)(=O)Nc2ccc(Br)cc2)c1 (stereo not drawn) [I-42, 3-(N-(4-bromophenyl)sulfamoyl)-N-(2-(tetrahydrofuran-2-yl)ethyl)benzamide]
8 | 11% | O=C(NCc1ccco1)c1cccc(S(=O)(=O)Nc2ccc(Br)cc2)c1 [I-48, 3-(N-(4-bromophenyl)sulfamoyl)-N-(furan-2-ylmethyl)benzamide]
9 | 53% | COc1ccccc1NS(=O)(=O)c1cccc(NC(=O)c2ccc(=O)n(Cc3ccccc3)n2)c1 [I-735, 1-benzyl-N-(3-(N-(2-methoxyphenyl)sulfamoyl)phenyl)-6-oxo-1,6-dihydropyridazine-3-carboxamide]
10 | 21% | Cc1ccccc1NS(=O)(=O)c1ccc(C(=O)Nc2ccc(Cl)cc2)cc1 [I-411, N-(4-chlorophenyl)-4-(N-(o-tolyl)sulfamoyl)benzamide]
11 | 55% | NS(=O)(=O)c1cc(C(=O)Nc2ccc(S(=O)(=O)Nc3ccc(Cl)cc3)cc2)ccc1Cl [I-987, 4-chloro-N-(4-(N-(4-chlorophenyl)sulfamoyl)phenyl)-3-sulfamoylbenzamide]
12 | 16% | O=C(Nc1cccc(S(=O)(=O)Nc2cccc(C(F)(F)F)c2)c1)c1ccoc1 [I-762, N-(3-(N-(3-(trifluoromethyl)phenyl)sulfamoyl)phenyl) furan-3-carboxamide]
13 | 48% | CC1Cc2ccccc2N1C(=O)c1cccc(S(=O)(=O)Nc2cc(C(F)(F)F)ccc2Cl)c1 (stereo not drawn) [I-579, N-(2-chloro-5-(trifluoromethyl)phenyl)-3-(2-methylindoline-1-carbonyl)benzenesulfonamide]
14 | 14% | CC(=O)NS(=O)(=O)c1ccc(NC(=O)c2cccc(S(=O)(=O)N3CCc4ccccc43)c2)cc1 [I-608, N-(4-(N-acetylsulfamoyl)phenyl)-3-(indolin-1-ylsulfonyl)benzamide]
15 | 50% | O=C(Nc1ccc2c(c1)OCCCO2)c1cccc(S(=O)(=O)Nc2ccc3c(c2)OCCO3)c1 [I-573, N-(3,4-dihydro-2H-benzo[b][1,4]dioxepin-7-yl)-3-(N-(2,3-dihydrobenzo[b][1,4]dioxin-6-yl)sulfamoyl)benzamide]
16 | 60% | CN(c1ccccc1)S(=O)(=O)c1cccc(NC(=O)c2cccs2)c1 [I-710, N-(3-(N-methyl-N-phenylsulfamoyl)phenyl)thiophene-2-carboxamide]
17 | 58% | COc1ccccc1NC(=O)c1ccc(NS(=O)(=O)c2cccc(C(F)(F)F)c2)cc1 [I-919, N-(2-methoxyphenyl)-4-((3-(trifluoromethyl)phenyl)sulfonamido) benzamide]
18 | 50% | Cc1ccc(NS(=O)(=O)c2ccc(C(=O)Nc3ccc(Cl)cc3C)cc2)cc1 [I-396, N-(4-chloro-2-methylphenyl)-4-(N-(p-tolyl)sulfamoyl)benzamide]
19 | 61% | O=C(Nc1cccc(S(=O)(=O)Nc2ccc(Cl)cc2)c1)c1cc2c(s1)CCCC2 [I-709, N-(3-(N-(4-chlorophenyl)sulfamoyl)phenyl)-4,5,6,7-tetrahydrobenzo[b]thiophene-2-carboxamide]
20 | 50% | Cc1ccnc(NC(=O)c2cccc(NS(=O)(=O)c3ccc(C)c(F)c3)c2)c1 [I-651, 3-((3-fluoro-4-methylphenyl)sulfonamido)-N-(4-methylpyridin-2-yl)benzamide]
21 | 41% | CCOc1ccc(NS(=O)(=O)c2cccc(NC(=O)c3cccnc3)c2)cc1Br [I-751, N-(3-(N-(3-bromo-4-ethoxyphenyl)sulfamoyl)phenyl)nicotinamide]

Row | % Inhibition of Apyrase | SMILES
22 | 55% | N#Cc1cccc(NC(=O)c2ccc(NS(=O)(=O)c3ccc(F)c(F)c3)cc2)c1 [I-932, N-(3-cyanophenyl)-4-((3,4-difluorophenyl)sulfonamido)benzamide]
23 | 71% | O=C(Nc1ccc(Cl)c([N+](=O)[O-])c1)c1cccc(S(=O)(=O)Nc2cc(C(F)(F)F)ccc2Cl)c1 [I-241, N-(4-chloro-3-nitrophenyl)-3-(N-(2-chloro-5-(trifluoromethyl)phenyl)sulfamoyl)benzamide]
24 | 52% | Cc1cccc(NC(=O)c2ccc(Cl)c(S(=O)(=O)N3CCc4ccccc43)c2)c1 [I-555, 4-chloro-3-(indolin-1-ylsulfonyl)-N-(m-tolyl)benzamide]
25 | 50% | O=C(Nc1ccccc1C(=O)N1CCCCC1)c1cccc(S(=O)(=O)N2CCc3ccccc32)c1 [I-572, 3-(indolin-1-ylsulfonyl)-N-(2-(piperidine-1-carbonyl)phenyl)benzamide]
26 | 61% | COc1ccc(S(=O)(=O)N2CCc3ccccc32)cc1C(=O)Nc1cc(C(F)(F)F)cc(C(F)(F)F)c1 [I-447, N-(3,5-bis(trifluoromethyl)phenyl)-5-(indolin-1-ylsulfonyl)-2-methoxybenzamide]
27 | 43% | O=C(Nc1ccc(Br)cc1)c1ccc(NS(=O)(=O)c2ccc(F)c(F)c2)cc1 [I-948, N-(4-bromophenyl)-4-((3,4-difluorophenyl)sulfonamido)benzamide]
28 | 44% | Cc1ccc(S(=O)(=O)N(C)c2ccc(C(=O)Nc3cccc(N4CCCC4=O)c3)cc2)cc1 [I-946, 4-((N,4-dimethylphenyl)sulfonamido)-N-(3-(2-oxopyrrolidin-1-yl)phenyl)benzamide]
29 | 56% | Cc1cccc2c1N(C(=O)c1cccc(S(=O)(=O)N3CCc4ccccc43)c1)CCC2 [I-510, (3-(indolin-1-ylsulfonyl)phenyl)(8-methyl-3,4-dihydroquinolin-1(2H)-yl)methanone]
30 | 65% | Cc1cc(Cl)ccc1NC(=O)c1ccc(Cl)c(S(=O)(=O)Nc2ccc(Cl)cc2C)c1 [I-433, 4-chloro-N-(4-chloro-2-methylphenyl)-3-(N-(4-chloro-2-methylphenyl)sulfamoyl)benzamide]
31 | 59% | CC1Cc2ccccc2N1S(=O)(=O)c1cccc(C(=O)Nc2cc(F)ccc2F)c1 (stereo not drawn) [I-469, N-(2,5-difluorophenyl)-3-((2-methylindolin-1-yl)sulfonyl)benzamide]
32 | 60% | O=C(c1cccc(S(=O)(=O)N(Cc2ccccc2)c2cccc(C(F)(F)F)c2)c1)N1CCc2ccccc21 [I-457, N-benzyl-3-(indoline-1-carbonyl)-N-(3-(trifluoromethyl)phenyl)benzenesulfonamide]
33 | 62% | O=C(Nc1cccc(Cl)c1)c1cccc(NS(=O)(=O)c2cccs2)c1 [I-631, N-(3-chlorophenyl)-3-(thiophene-2-sulfonamido)benzamide]
34 | 69% | COc1ccc(Br)c(C(=O)Nc2cccc(NS(=O)(=O)c3ccc(C)c(C)c3)c2)c1 [I-338, 2-bromo-N-(3-((3,4-dimethylphenyl)sulfonamido)phenyl)-5-methoxybenzamide]
35 | 56% | COc1ccc(NC(=O)c2cccc(S(=O)(=O)N(C)c3ccc(OC)cc3)c2)cc1 [I-514, N-(4-methoxyphenyl)-3-(N-(4-methoxyphenyl)-N-methylsulfamoyl)benzamide]
36 | 51% | Cc1ccc(C(=O)Nc2cccc(S(=O)(=O)Nc3cccc(C(F)(F)F)c3)c2)cn1 [I-740, 6-methyl-N-(3-(N-(3-(trifluoromethyl)phenyl)sulfamoyl)phenyl)nico tinamide]
37 | 57% | O=C(c1ccc(NS(=O)(=O)c2ccc3c(c2)OCCCO3)cc1)N1CCc2ccccc21 [I-923, N-(4-(indoline-1-carbonyl)phenyl)-3,4-dihydro-2H-benzo[b][1,4]dioxepine-7-sulfonamide]
38 | 58% | O=C(Nc1cccc(S(=O)(=O)Nc2cccc(C(F)(F)F)c2)c1)c1ccsc1 [I-718, N-(3-(N-(3-(trifluoromethyl)phenyl)sulfamoyl)phenyl) thiophene-3-carboxamide]
39 | 55% | NS(=O)(=O)c1cccc(NC(=O)c2cccc(S(=O)(=O)N3CCc4ccccc43)c2)c1 [I-529, 3-(indolin-1-ylsulfonyl)-N-(3-sulfamoylphenyl)benzamide]
40 | 13% | O=C(Nc1ccc2c(c1)OCCCO2)c1cccc(S(=O)(=O)N2CCc3ccccc32)c1 [I-609, N-(3,4-dihydro-2H-benzo[b][1,4]dioxepin-7-yl)-3-(indolin-1-ylsulfonyl)benzamide]
41 | 29% | COc1ccc([N+](=O)[O-])cc1NS(=O)(=O)c1ccc(C(=O)N2CCc3ccccc32)cc1 [I-892, 4-(indoline-1-carbonyl)-N-(2-methoxy-5-nitrophenyl)benzenesulfonamide]
42 | 48% | CCOc1ccc(NS(=O)(=O)c2c(C)cccc2NC(=O)c2ccc(Oc3ccccc3)cc2)cc1 [I-825, N-(2-(N-(4-ethoxyphenyl)sulfamoyl)-3-methylphenyl)-4-phenoxybenzamide]
